Legend:
[1] = target: T1, Type-1 angiotensin II receptor (Oryctolagus cuniculus, UniProt P34976); assay: In vitro binding affinity determined by its ability to displace the specific binding ligand [125I]-Sar1, Ile8-AII from Angiotensin II receptor, type 1 in rabbit aorta membranes; format: cell membranes, Membrane
T1 sequence (P34976 whole entry): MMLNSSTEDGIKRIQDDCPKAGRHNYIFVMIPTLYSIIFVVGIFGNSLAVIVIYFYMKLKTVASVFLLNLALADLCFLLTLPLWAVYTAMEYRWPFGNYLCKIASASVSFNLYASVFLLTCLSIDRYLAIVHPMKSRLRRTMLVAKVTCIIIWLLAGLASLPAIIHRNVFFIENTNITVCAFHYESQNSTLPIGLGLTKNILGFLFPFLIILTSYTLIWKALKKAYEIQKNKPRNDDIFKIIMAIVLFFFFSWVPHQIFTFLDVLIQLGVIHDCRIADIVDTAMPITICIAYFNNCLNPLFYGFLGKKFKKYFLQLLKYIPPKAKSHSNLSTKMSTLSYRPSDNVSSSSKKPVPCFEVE

[2] = target: T2, Type-2 angiotensin II receptor (Rattus norvegicus, UniProt P35351); assay: In vitro binding affinity determined by its ability to displace the specific binding ligand [125I]-Sar1, Ile8-AII from AT2 receptor in rat midbrain membranes; format: cell membranes, Membrane
T2 sequence (P35351 whole entry): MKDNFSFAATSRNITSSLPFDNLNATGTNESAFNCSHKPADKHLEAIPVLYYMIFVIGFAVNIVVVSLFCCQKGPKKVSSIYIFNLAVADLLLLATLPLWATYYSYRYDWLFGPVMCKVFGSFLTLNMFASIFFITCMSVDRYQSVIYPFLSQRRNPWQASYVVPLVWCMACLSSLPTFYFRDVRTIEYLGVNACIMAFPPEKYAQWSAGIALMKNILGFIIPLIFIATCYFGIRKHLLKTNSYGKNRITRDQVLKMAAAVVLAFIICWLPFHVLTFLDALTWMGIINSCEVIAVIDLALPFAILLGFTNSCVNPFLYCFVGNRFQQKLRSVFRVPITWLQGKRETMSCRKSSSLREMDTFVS

Canis familiaris [3] = assay: Inhibitory activity against AII-induced pressor responses in Beagle dogs at a dose of 0.3 upon iv administration at duration of >6 hr; format: functional, Canis lupus familiaris
Canis familiaris [4] = assay: Inhibitory activity against AII-induced pressor responses in Beagle dogs at a dose of 1.0 upon po administration at duration of >6 hr; format: functional, Canis lupus familiaris
Canis familiaris [5] = assay: Effective dose in Beagle dog after intravenous administration; Range is (0.025 - 0.029); format: functional; settings: Canis lupus familiaris
Canis familiaris [6] = assay: Effective dose in Beagle dog after peroral administration; Range is (0.52 - 0.64); format: functional; settings: Canis lupus familiaris, po
Rattus norvegicus [7] = assay: Effective dose in rat after peroral administration; Range is (0.25 - 0.31); format: functional; settings: po
Rattus norvegicus [8] = assay: Inhibitory activity against AII-induced pressor responses in rats at a dose of 0.3 upon iv administration at duration of >6 hr; format: functional
Rattus norvegicus [9] = assay: Inhibitory activity against AII-induced pressor responses in rats at a dose of 0.3 upon po administration at duration of >6 hr; format: functional
[10] = target: Angiotensin II receptor (Homo sapiens) (UniProt P30556+P50052); assay: Ratio of IC50 of AT2/AT1 receptors; format: protein assay
Rattus norvegicus [11] = assay: Effective dose in rat after intravenous administration; Range is (0.12 - 0.15); format: functional
Canis familiaris [12] = assay: Inhibition on AII-induced pressor responses in Beagle dogs at a dose of 0.3 upon iv administration at duration of >6 hr; format: functional, Canis lupus familiaris
Rattus norvegicus [13] = assay: Effective dose in rat after peroral administration; Range is (0.001 - 0.167); format: functional; settings: po
Rattus norvegicus [14] = assay: Effective dose in rat after intravenous administration; Range is (0.062 - 0.076); format: functional
Rattus norvegicus [15] = assay: Inhibition on AII-induced pressor responses in rats at a dose of 0.3 upon iv administration at duration of >6 hr; format: functional
Rattus norvegicus [16] = assay: Inhibition on AII-induced pressor responses in rats at a dose of 0.3 upon po administration at duration of >6 hr; format: functional

Structure (SMILES)	IC50 [1]	IC50 [2]	further results
CCCCCN(C(=O)c1ccccc1)c1ccc2nc(CCC)n(Cc3ccc(-c4ccccc4-c4nn[nH]n4)cc3)c(=O)c2c1	1 nM		
CCCCC(=O)Nc1cc2nc(CCCC)n(Cc3ccc(-c4ccccc4S(=O)(=O)NC(=O)CCC4CCCC4)cc3)c2nc1C	0.1 nM	0.31 nM	
CCCC(=O)Nc1cnc2c(nc(CCC)n2Cc2ccc(-c3ccccc3S(=O)(=O)NC(=O)OCc3ccccc3)cc2)c1C	0.33 nM	0.94 nM	Max inhibition (Canis familiaris [3]): 100%; Max inhibition (Canis familiaris [4]): 76%; ED50 (Canis familiaris [5]): 0.027 mg/kg; ED50 (Canis familiaris [6]): 0.58 mg/kg; ED50 (Rattus norvegicus [7]): 0.28 mg/kg; Max inhibition (Rattus norvegicus [8]): 85%; Max inhibition (Rattus norvegicus [9]): 58%; Ratio [10]: 2.8; ED50 (Rattus norvegicus [11]): 0.13 mg/kg
CCc1nc2c(C)cc(C)nc2n1Cc1ccc(-c2ccccc2S(=O)(=O)NC(=O)CCC2CCCC2)cc1	0.1 nM	33 nM	
CCCCOC(=O)NS(=O)(=O)c1ccccc1-c1ccc(Cn2c(CCCC)nc3cc(NC(=O)CCCC)c(C)nc32)cc1			Max inhibition (Canis familiaris [12]): 100%; ED50 (Rattus norvegicus [13]): 0.014 mg/kg; ED50 (Rattus norvegicus [14]): 0.069 mg/kg; Max inhibition (Rattus norvegicus [15]): 82%; Max inhibition (Rattus norvegicus [16]): 86%
CCCCOC(=O)NS(=O)(=O)c1ccccc1-c1ccc(Cn2c(CCC)nc3c(C)c(NC(=O)CCC)cnc32)cc1	0.51 nM	5.6 nM	
CCc1nc2c(C)cc(C)nc2n1Cc1ccc(-c2ccccc2-c2nnn[nH]2)cc1 [L-158809]		> 10000 nM	

Further lines, with some results ahead:

IC50 [1]	IC50 [2]	Structure (SMILES)	further results
0.26 nM	0.25 nM	CCCC(=O)Nc1c(C)nc2c(nc(CCC)n2Cc2ccc(-c3ccccc3S(=O)(=O)NC(=O)CCC3CCCC3)cc2)c1C	
0.37 nM	2.7 nM	CCCCCC(=O)NS(=O)(=O)c1ccccc1-c1ccc(Cn2c(CCCC)nc3cc(NC(=O)CCCC)cnc32)cc1	
0.6 nM	510 nM	CCCCc1nc2cc(NC(=O)N(c3ccccc3)c3ccccc3)c(C)nc2n1Cc1ccc(-c2ccccc2-c2nn[nH]n2)cc1	

Source: ChEMBL document CHEMBL1153653, “Imidazo[4,5-b]pyridine-based AT1 / AT2 angiotensin II receptor antagonists” (Bioorg Med Chem Lett, 1994)
